In PubChem BioAssay (NCI):
Several values for one entry are separate records, joined by “and”; a condition that tells them apart may be missing. Identical values can stand only once.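 The compound was tested at five concentrations on cells cultured in 96-well plates, with a 48-hour exposure period. GI50 is the concentration that inhibits growth by half. TGI is the concentration that stops growth completely.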

Legend:
Assay in all cases: inhibition of tumour cell growth, NCI panel, 48 h
CCRF-CEM leukemia = system: CCRF-CEM leukemia
COLO 205 colon = system: COLO 205 colon
EKVX NSCLC = system: EKVX NSCLC
M14 melanoma = system: M14 melanoma
MOLT-4 leukemia = system: MOLT-4 leukemia
NCI-H522 lung = system: NCI-H522 lung
SF-295 CNS = system: SF-295 CNS
SN12C renal = system: SN12C renal
U251 CNS = system: U251 CNS
UACC-62 melanoma = system: UACC-62 melanoma

Compound	GI50 (CCRF-CEM leukemia) [µM]	TGI (CCRF-CEM leukemia)	TGI (COLO 205 colon) [µM]	GI50 (EKVX NSCLC) [µM]	TGI (EKVX NSCLC)	GI50 (M14 melanoma) [µM]	TGI (M14 melanoma)	GI50 (MOLT-4 leukemia) [µM]	TGI (MOLT-4 leukemia)	GI50 (NCI-H522 lung)	TGI (NCI-H522 lung) [µM]	GI50 (SF-295 CNS) [µM]	GI50 (SN12C renal) [µM]	TGI (SN12C renal)	GI50 (U251 CNS) [µM]	GI50 (UACC-62 melanoma) [µM]	TGI (UACC-62 melanoma)	TGI (SF-295 CNS) [µM]	TGI (U251 CNS) [µM]	GI50 (COLO 205 colon) [µM]
COC(=O)Nc1nc2ccc(C(=O)c3cccs3)cc2[nH]1	0.124	19.8 µM and > 100 µM	2.09	0.584	15.2 µM and > 100 µM	0.0797	2.79 µM and 0.432 µM	0.269	13 µM and > 100 µM	0.0139 µM and 0.107 µM	0.0606	0.109	0.729	32.9 µM and > 100 µM	0.147	0.189	65.4 µM and > 100 µM			
CC1=C2C3OC(=O)C(C)C3C(O)C[C@@]2(C)C(=O)CC1 (stereo not given in full)		> 100 µM	> 100		> 100 µM		> 100 µM		> 100 µM		> 100			> 100 µM			> 100 µM	> 100	> 100	
O=C1C(OC(=O)c2ccccc2)=C(c2ccc(O)cc2)C(=O)C(OC(=O)c2ccccc2)=C1c1ccc(O)cc1		> 100 µM	> 100		> 100 µM		> 100 µM		> 100 µM		> 100			> 100 µM			> 100 µM	> 100	> 100	
C[C@@H](C[C@H](CCO)c1ccccc1)c1ccc2ccccc2c1	0.364	1.51 µM	3.41	1.44	2.82 µM	1.46	2.84 µM	0.356	1.61 µM	1.33 µM	2.78	1.72	1.69	3.22 µM	1.57	1.42	2.86 µM	3.19	2.94	1.75
COC(=O)C(/C(=N\O)C(=O)Nc1ccc(Br)cc1)c1nc2ccccc2[nH]c1=O (stereo not given)		72.9 µM	37.5		> 100 µM		> 100 µM		57.5 µM		32.5			> 100 µM			73.1 µM	> 100	> 100	
CN1CCN(c2nc3cc(F)ccc3n3cccc23)CC1		> 100 µM	> 100		> 100 µM		34.5 µM		81.8 µM		> 100			> 100 µM			80.4 µM	52.9	> 100	
N=C1C=C(N)C(=O)c2ccccc21	0.308	> 100 µM	0.664	0.202	0.421 µM	0.209	0.422 µM	0.215	0.558 µM	0.17 µM	0.342	0.639	0.188	0.376 µM	0.183	0.181	0.352 µM	1.53	0.339	0.267
Cc1nc2sc(C(=O)Nc3ccccc3)c(N)c2cc1C(=O)c1ccccc1	1.69	> 50 µM	7.55	2.74	> 50 µM	1.56	> 50 µM	2	> 50 µM	1.54 µM	12.7	1.83	3.01	> 50 µM	2.09	2.12	> 50 µM	> 50	> 50	1.86
Cc1c(Cl)cccc1NC(=O)C(=O)c1c(O)c2ccc(O)cc2oc1=O		> 100 µM	> 100		> 100 µM		> 100 µM		> 100 µM		> 100			> 100 µM			> 100 µM	> 100	> 100	
Cn1cc(-c2csc(-c3cn(C(=O)OC(C)(C)C)c4ccccc34)n2)c2cccnc21	3.89	67.6 µM	14.6	7.12	33.7 µM	7.36	22.7 µM	8.88	46.8 µM	3.84 µM	25.4	3.42	6.45	21.6 µM	4.23	7.8	22.4 µM	14.5	16.3	2.97
CCSc1nc(N)c2cnn(CC)c2n1	3.58	10.8 µM	> 100	7.79	34.1 µM	15.1	30.5 µM	3.99	> 100 µM	> 100 µM	> 100	8.02	4.12	26.1 µM	4.12	4.8	24.5 µM	> 100	86	18.9
O=C(/C=C/c1ccc(Cl)cc1Cl)c1ccc(Cl)cc1Cl	9.14	32.8 µM	> 65.4	20.6	58.7 µM	18.7	46.3 µM	6.11	14.9 µM		1.16	18.7		24.8 µM	14.1	1.52	12.1 µM	47.7	34.1	20.8
CC1=C(SCCC(=O)OC(C[Se]C2=C(C)C(=O)c3ccccc3C2=O)C(=O)NC(C)(C)C)C(=O)c2ccccc2C1=O (stereo not given)	0.306	1.2 µM	3.14	1.58	4.48 µM	1.32	2.67 µM	0.274	1.31 µM	1.57 µM	3.4	0.315	1.47	2.99 µM	0.45	1.48	2.83 µM	1.21	1.57	1.66
CN(C)CCOc1ccc2c(c1)C(=O)/C(=C\c1ncc([N+](=O)[O-])n1C)C2	1.39	> 100 µM	0.628	0.711	3.83 µM	0.543	1.83 µM	0.358	1.65 µM	0.191 µM	0.492	0.46	1.12	5.21 µM	1.12	0.851	2.49 µM	1.47	4.75	0.25
CCCC(=O)OC(OC(=O)CCC)c1ccc([N+](=O)[O-])o1		> 100 µM	54.9		99.6 µM		47.8 µM		98.4 µM		28.9			31.3 µM			49.1 µM	> 100	> 100	
CNC(=O)c1cc(-c2ccc(F)cc2)cc(-c2ccc(S(=O)(=O)N3CCCC3)cc2)c1N	> 20.7	> 25 µM	> 25	10.2	> 25 µM	> 25	> 25 µM	15.5	> 25 µM	22.3 µM	> 25	10.6	> 23.8	> 25 µM	15.1	> 23.1	> 25 µM	> 25	> 25	23.5
COc1cc([C@@H]2c3cc4c(cc3[C@@H](NCc3cccc(F)c3)C3COC(=O)[C@@H]32)OCO4)cc(OC)c1O (stereo not given in full)		18.1 µM	> 65		38 µM		40.3 µM		5.59 µM		19.4			12.8 µM			10.3 µM	> 65	7.11	
NC1=Nc2ccccc2Sc2ccccc21		> 100 µM	> 100		> 100 µM		> 100 µM		> 100 µM		> 100			> 100 µM			> 100 µM	> 100	> 100	
COC(=O)C#CC(N)=O		36.4 µM	> 100		> 100 µM		42.2 µM		62.6 µM		> 100			> 100 µM			> 100 µM	> 100	> 100	
CCOC(=O)N(O)c1ccc(/C=C/c2ccccc2)cc1	9.38	> 93.5 µM	38.5	9.05	63.6 µM	7.17	26.8 µM	11	51.3 µM	7 µM	28	2.45	14.7	> 100 µM	4.72	0.47	3.07 µM	22.1	29.2	13.2
COc1cc2c(=O)n(CC3CCCCC3)c3c4cc[nH]c4ncc3c2cc1OC	2.54	> 50 µM	11.7	5.52	> 50 µM	4.3	> 50 µM	5.64	> 50 µM	1.34 µM	18.3	2.18	1.46	11.6 µM	4.85	6.01	> 50 µM	10.7	15.7	1.67
N#C/C(=C1\OC(N)=C(c2ccc(Cl)cc2)C1=O)c1ccc(Cl)cc1		73.5 µM	32.8		32.4 µM		29.8 µM		50.9 µM		24.6			23 µM			27.5 µM	29.2	29.1	
COc1ccc(F)cc1-c1ccnc2[nH]c(C3=CCN(C4CCC(CC(=O)O)CC4)CC3)cc12 (stereo not given)	0.13	> 100 µM	0.561	0.289	40.9 µM	0.275	1.93 µM	0.218	> 100 µM	0.159 µM	0.714	0.286	0.146	35.5 µM	0.137	0.113	0.371 µM	15.4	> 100	0.0747
